Reference: US4820695A, “C-20-dihydro-deoxy-(cyclic amino)-derivatives of macrolide antibiotics” (priority 1987, dated 1989)
Values after ≈ are worked out from the molar mass of the structure shown. Where two headings read alike, the source gives them in different places.

Assays:
[1] = system: Staphyloccus aureus X1.1; test: MIC, standard agar-dilution assay (Table IX); type: cell-based, Staphylococcus aureus; details: Staphylococcus aureus, read-out: MIC
[2] = system: Staphylococcus aureus V41; test: MIC, standard agar-dilution assay (Table IX); type: cell-based; details: Staphylococcus aureus V41, Penicillin-resistant strain, read-out: MIC
[3] = system: Staphylococcus aureus X400; test: MIC, standard agar-dilution assay (Table IX); type: cell-based; details: Staphylococcus aureus X400, Methicillin-resistant strain, read-out: MIC
[4] = system: Staphylococcus aureus S13E; test: MIC, standard agar-dilution assay (Table IX); type: cell-based; details: Staphylococcus aureus, S13E
[5] = system: Staphylococcus epidermidis EPI1; test: MIC, standard agar-dilution assay (Table IX); type: cell-based; details: Staphylococcus epidermidis EPI1; agar-dilution; read-out: MIC
[6] = system: Staphylococcus epidermidis 222; test: MIC, standard agar-dilution assay (Table IX); type: cell-based; details: read-out: MIC
[7] = system: Streptococcus pyogenes C203; test: MIC, standard agar-dilution assay (Table IX); type: cell-based; details: read-out: MIC
[8] = system: Streptococcus pneumoniae Park I; test: MIC, standard agar-dilution assay (Table IX); type: cell-based; details: Streptococcus pneumoniae Park I; agar-dilution; read-out: MIC
[9] = system: Streptococcus Group D X66; test: MIC, standard agar-dilution assay (Table IX); type: cell-based; details: read-out: MIC
[10] = system: Streptococcus Group D 2041; test: MIC, standard agar-dilution assay (Table IX); type: cell-based; details: GROUPD2041, read-out: MIC
[11] = system: Haemophilus influenzae C.L.; test: MIC, standard agar-dilution assay (Table IX); type: cell-based; details: Ampicillin-sensitive strain, read-out: MIC
[12] = system: Haemophilus influenzae 76; test: MIC, standard agar-dilution assay (Table IX); type: cell-based; details: Haemophilus influenzae 76, Ampicillin-resistant strain, read-out: MIC
[13] = system: Escherichia coli N10; test: MIC, standard agar-dilution assay (Table IX); type: cell-based; details: read-out: MIC
[14] = system: Escherichia coli EC14; test: MIC, standard agar-dilution assay (Table IX); type: cell-based; details: read-out: MIC
[15] = system: Escherichia coli TEM; test: MIC, standard agar-dilution assay (Table IX); type: cell-based; details: read-out: MIC
[16] = system: Klebsiella X26; test: MIC, standard agar-dilution assay (Table IX); type: cell-based; details: read-out: MIC
[17] = system: Mycoplasma gallisepticum 29C; test: MIC, broth-dilution microtiter test (Table X); type: cell-based; details: Mycoplasmoides gallisepticum, read-out: MIC
Description: (§1) The MIC's in Table X were obtained using conventional broth-dilution microtiter tests.

[18] = system: Mycoplasma hyopneumoniae S5972; test: MIC, broth-dilution microtiter test (Table X); type: cell-based; details: Mesomycoplasma hyopneumoniae, read-out: MIC
Description: as §1

[19] = system: Mycoplasma hyorhinis 29E; test: MIC, broth-dilution microtiter test (Table X); type: cell-based; details: read-out: MIC
Description: as §1

[20] = system: Mycoplasma synoviae 40A; test: MIC, broth-dilution microtiter test (Table X); type: cell-based; details: Mycoplasmopsis synoviae, read-out: MIC
Description: as §1

[21] = system: Pasteurella hemolytica 22C; test: MIC, broth-dilution microtiter test (Table X); type: cell-based; details: read-out: MIC
Description: as §1

[22] = system: Pasteurella multocida 17E; test: MIC, broth-dilution microtiter test (Table X); type: cell-based; details: Bovine isolate, read-out: MIC
Description: as §1

[23] = system: Pasteurella multocida 60A; test: MIC, broth-dilution microtiter test (Table X); type: cell-based; details: Avian isolate, read-out: MIC
Description: as §1

[24] = system: Staphylococcus aureus 19C; test: MIC, broth-dilution microtiter test (Table X); type: cell-based
Description: as §1

[25] = system: Streptococcus sp. 19F; test: MIC, broth-dilution microtiter test (Table X); type: cell-based; details: read-out: MIC
Description: as §1

[26] = system: Streptococcus pyogenes C203; test: ED50 in mice experimentally infected with S. pyogenes C203 (Table XI); type: in vivo; details: Streptococcus pyogenes, doses given 1 and 4 hours postinfection, read-out: ED50
Summary of the method: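 Mice infected with S. pyogenes C203 received two doses of compound, 1 and 4 h post-infection. ED50 is the dose in mg/kg (per dose, ×2) protecting 50% of animals.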

[27] = system: Staphylococcus aureus; test: MIC, broth-dilution microtiter test (Table X); type: cell-based; details: read-out: MIC
Description: as §1

[28] = system: Pasteurella multocida; test: Pasteurella infection in one-day-old chicks, subcutaneous administration (Table XII); type: in vivo; details: Administered subcutaneously, 30 mg/kg × 2, 1 and 4 hours post-challenge
Summary of the method: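 One-day-old chicks were challenged subcutaneously with 0.1 ml of a 10^-4 dilution of a 20-h tryptose broth culture of avian P. multocida. Compounds were then given by subcutaneous injection at 30 mg/kg, at 1 and 4 hours post-challenge.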

[29] = system: Pasteurella multocida; test: Pasteurella infection in one-day-old chicks, medicated drinking water (Table XIII); type: in vivo; details: Administered in the available drinking water at 2 g/gal
Summary of the method: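 One-day-old chicks were challenged subcutaneously with 0.1 ml of a 10^-4 dilution of a 20-hour tryptose broth culture of avian P. multocida. Compound was given in drinking water at 2 g/gal, available from 4 to 20 hours before challenge and throughout the 3-day test period.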

[30] = Titratable groups in 66% aqueous DMF (Tables XIV-XVI); type: physicochemical
Description: ^c Run in 66% aqueous DMF
^d Run in 66% aqueous DMF

[31] = Titratable groups (first value)

Row | SMILES | MIC [1] [µg/mL] | MIC [2] [µg/mL] | MIC [3] [µg/mL] | MIC [4] [µg/mL] | MIC [5] [µg/mL] | MIC [6] [µg/mL] | MIC [7] [µg/mL] | MIC [8] [µg/mL] | MIC [9] [µg/mL] | MIC [10] [µg/mL] | MIC [17] [µg/mL] | MIC [18] [µg/mL] | MIC [19] [µg/mL] | MIC [20] [µg/mL] | MIC [21] [µg/mL] | MIC [22] [µg/mL] | MIC [23] [µg/mL] | MIC [25] [µg/mL] | ED50 ([26]; C203, Oral) [mg/kg] | ED50 ([26]; C203, sc, Subcutaneous) [mg/kg] | other results
1 | CCC1OC(=O)CC(O)C(C)C(OC2OC(C)C(O)C(N(C)C)C2O)C(CCN2C(C)CCCC2C)CC(C)C(=O)C=CC(C)=CC1COC1OC(C)C(O)C(OC)C1OC (stereo not shown) [Compound D41] | 8 (≈ 9.2 µM) | 8 (≈ 9.2 µM) | 8 (≈ 9.2 µM) | 8 (≈ 9.2 µM) | 8 (≈ 9.2 µM) | 2 (≈ 2.3 µM) | 1 (≈ 1.15 µM) | 1 (≈ 1.15 µM) | 32 (≈ 36.8 µM) | 32 (≈ 36.8 µM) | 6.25 (≈ 7.19 µM) | 3.12 (≈ 3.59 µM) | 50 (≈ 57.5 µM) | 1.56 (≈ 1.79 µM) | > 50 | 25 (≈ 28.8 µM) | 50 (≈ 57.5 µM) | 6.25 (≈ 7.19 µM) | > 100 | 2.04 | MIC [11]: 64 µg/mL (≈ 73.6 µM); MIC [12]: 64 µg/mL (≈ 73.6 µM); MIC [13]: > 128 µg/mL; MIC [14]: > 128 µg/mL; MIC [15]: > 128 µg/mL; MIC [16]: 128 µg/mL (≈ 147 µM); MIC [24]: 6.25 µg/mL (≈ 7.19 µM)
2 | CCC1OC(=O)CC(O)C(C)C(OC2OC(C)C(O)C(N(C)C)C2O)C(CCN2CCC3CCCCC32)CC(C)C(=O)C=CC(C)=CC1COC1OC(C)C(O)C(OC)C1OC (stereo not shown) [Compound D44] | – | – | – | – | – | – | – | – | – | – | 1.56 (≈ 1.77 µM) | 0.39 (≈ 0.443 µM) | 50 (≈ 56.7 µM) | 0.097 (≈ 0.11 µM) | 12.5 (≈ 14.2 µM) | 12.5 (≈ 14.2 µM) | 12.5 (≈ 14.2 µM) | 1.56 (≈ 1.77 µM) | 37.9 | 0.69 | MIC [24]: 3.12 µg/mL (≈ 3.54 µM)
3 | CCC1OC(=O)CC(O)C(C)C(OC2OC(C)C(O)C(N(C)C)C2O)C(CCN2CCCCCCCC2)CC(C)C(=O)C=CC(C)=CC1COC1OC(C)C(O)C(OC)C1OC (stereo not shown) [Compound D7, 20-DH-DO-20-(octahydro-1H-azonin-1-yl)desmycosin] | 0.5 (≈ 0.566 µM) | 0.5 (≈ 0.566 µM) | 0.5 (≈ 0.566 µM) | 0.5 (≈ 0.566 µM) | 0.5 (≈ 0.566 µM) | 0.25 (≈ 0.283 µM) | 0.06 (≈ 0.0679 µM) | 0.5 (≈ 0.566 µM) | 4 (≈ 4.53 µM) | 8 (≈ 9.06 µM) | 0.39 (≈ 0.442 µM) | 1.56 (≈ 1.77 µM) | 25 (≈ 28.3 µM) | 0.39 (≈ 0.442 µM) | 3.12 (≈ 3.53 µM) | 6.25 (≈ 7.08 µM) | 6.25 (≈ 7.08 µM) | 3.12 (≈ 3.53 µM) | 12 | 1.6 | MIC [11]: 16 µg/mL (≈ 18.1 µM); MIC [12]: 16 µg/mL (≈ 18.1 µM); MIC [13]: 64 µg/mL (≈ 72.5 µM); MIC [14]: 64 µg/mL (≈ 72.5 µM); MIC [15]: 16 µg/mL (≈ 18.1 µM); MIC [16]: > 128 µg/mL; MIC [27]: 1.56 µg/mL (≈ 1.77 µM); Number of Deaths/Number Treated [28]: 3/10; Number of Deaths/Number Treated [29]: 2/10; pKa ([30]; Titratable groups): 9; pKa [30, 31]: 7.9
4 | CCC1OC(=O)CC(O)C(C)C(OC2OC(C)C(O)C(N(C)C)C2O)C(CCN2CCCCCC2)CC(C)C(=O)C=CC(C)=CC1COC1OC(C)C(O)C(OC)C1OC (stereo not shown) [Compound D5, 20-DH-DO-20-(Hexahydroazepin-1-yl)desmycosin] | 0.5 (≈ 0.585 µM) | 0.5 (≈ 0.585 µM) | 1 (≈ 1.17 µM) | 0.25 (≈ 0.292 µM) | 0.5 (≈ 0.585 µM) | 0.12 (≈ 0.14 µM) | 0.5 (≈ 0.585 µM) | 0.5 (≈ 0.585 µM) | 8 (≈ 9.36 µM) | 8 (≈ 9.36 µM) | 1.56 (≈ 1.82 µM) | 1.56 (≈ 1.82 µM) | 50 (≈ 58.5 µM) | 0.39 (≈ 0.456 µM) | 1.56 (≈ 1.82 µM) | 3.12 (≈ 3.65 µM) | 3.12 (≈ 3.65 µM) | 3.12 (≈ 3.65 µM) | 50 | 1.3 | MIC [11]: 16 µg/mL (≈ 18.7 µM); MIC [12]: 128 µg/mL (≈ 150 µM); MIC [13]: 128 µg/mL (≈ 150 µM); MIC [14]: 4 µg/mL (≈ 4.68 µM); MIC [15]: 8 µg/mL (≈ 9.36 µM); MIC [16]: > 128 µg/mL; MIC [27]: 1.56 µg/mL (≈ 1.82 µM); Number of Deaths/Number Treated [28]: 0/10; Number of Deaths/Number Treated [29]: 2/10; pKa ([30]; Titratable groups): 9.6; pKa [30, 31]: 7.9
5 | CCC1OC(=O)CC(O)C(C)C(OC2OC(C)C(O)C(N(C)C)C2O)C(CCN2CCc3ccccc32)CC(C)C(=O)C=CC(C)=CC1COC1OC(C)C(O)C(OC)C1OC (stereo not shown) [Compound D42] | 5 (≈ 5.71 µM) | 0.25 (≈ 0.286 µM) | 0.5 (≈ 0.571 µM) | 0.5 (≈ 0.571 µM) | 0.5 (≈ 0.571 µM) | 0.25 (≈ 0.286 µM) | 0.5 (≈ 0.571 µM) | 0.25 (≈ 0.286 µM) | 2 (≈ 2.29 µM) | 2 (≈ 2.29 µM) | 0.097 (≈ 0.111 µM) | 0.097 (≈ 0.111 µM) | 3.12 (≈ 3.57 µM) | 0.195 (≈ 0.223 µM) | 50 (≈ 57.1 µM) | 12.5 (≈ 14.3 µM) | 25 (≈ 28.6 µM) | 0.78 (≈ 0.891 µM) | – | – | MIC [11]: 16 µg/mL (≈ 18.3 µM); MIC [12]: 8 µg/mL (≈ 9.14 µM); MIC [13]: > 128 µg/mL; MIC [14]: > 128 µg/mL; MIC [15]: > 128 µg/mL; MIC [16]: 64 µg/mL (≈ 73.1 µM); MIC [24]: 0.78 µg/mL (≈ 0.891 µM)
6 | CCC1OC(=O)CC(O)C(C)C(OC2OC(C)C(O)C(N(C)C)C2O)C(CCN2CCC3(CCCCC3)CC2)CC(C)C(=O)C=CC(C)=CC1COC1OC(C)C(O)C(OC)C1OC (stereo not shown) [Compound D43] | – | – | – | – | – | – | – | – | – | – | 0.195 (≈ 0.214 µM) | 0.78 (≈ 0.858 µM) | 25 (≈ 27.5 µM) | < 0.048 | 6.25 (≈ 6.87 µM) | 6.25 (≈ 6.87 µM) | 6.25 (≈ 6.87 µM) | 1.56 (≈ 1.72 µM) | 8 | 1.34 | MIC [24]: 1.56 µg/mL (≈ 1.72 µM)
